What was measured:
[1] = Repeat dosing in DIO mice: food intake, body weight, body composition; format: in vivo, mouse; conditions: 0.3 nmol/kg s.c. daily
Procedure: To control for the dosing frequency, all animals were dosed daily. Dosing frequency was determined on the basis of DIO mouse PK data for compound 2 and dulaglutide. Animals in the dulaglutide group received this drug daily. The vehicle-treated animals received vehicle daily. […] The day prior to initiating of dosing, animals were weighed and grouped by body weight. […].
Beginning 24-hr after the first dosing, three groups of mice were pair-fed (PF) to the 1.0, 2.0, or 4.0 nmol/kg compound 2-treated animals. The amount of food in the hopper of pair-fed mice was adjusted to match the average food consumed in the previous 24 hours by mice in the compound treatment group to which they were being matched. All PF groups were dosed daily with vehicle. On the ninth day (or Day 10 for the pair-fed groups), animals were fasted for 6 hours and body weight and fasting glucose were measured. Blood was collected for measurements of insulin, FGF21 and plasma lipids. The food intake, body weight, body composition, fasting glucose, fasting insulin, fasting FGF21, and fasting plasma lipid data are shown in tables 20-26.

rat GCGR = target: T1, rat GCGR (Rattus norvegicus, UniProt P30082); test: rat glucagon receptor cAMP assay; format: cell-based; conditions: HEK293 cells
T1 construct: expressed in transfected cells
T1 sequence (P30082 27-485): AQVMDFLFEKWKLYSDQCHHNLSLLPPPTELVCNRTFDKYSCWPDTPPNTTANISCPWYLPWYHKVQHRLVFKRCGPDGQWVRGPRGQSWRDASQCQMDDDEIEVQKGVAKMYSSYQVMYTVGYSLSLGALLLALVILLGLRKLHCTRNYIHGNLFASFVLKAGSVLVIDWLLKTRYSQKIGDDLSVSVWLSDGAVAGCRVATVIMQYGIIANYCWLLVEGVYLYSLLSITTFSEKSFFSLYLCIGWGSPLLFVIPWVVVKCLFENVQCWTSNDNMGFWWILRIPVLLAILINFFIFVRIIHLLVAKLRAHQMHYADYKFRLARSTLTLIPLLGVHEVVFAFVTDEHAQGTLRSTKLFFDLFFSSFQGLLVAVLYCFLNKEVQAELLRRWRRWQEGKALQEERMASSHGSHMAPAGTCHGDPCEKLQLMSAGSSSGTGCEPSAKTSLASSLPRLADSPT
Procedure: For each receptor assay, the clonal cells were seeded into 384-well plates at the appropriate densities ranging from 2000-5000 cells/per well. Compounds were diluted in HBSS supplemented with 5 mM HEPES, 0.1% BSA and 0.5 mM IBMX and added to the cells. […] Standard curves were included in each assay plate for back calculation of cAMP concentrations.

For “Dulaglutide: the GLP1R agonist, dulaglutide [reference compound]”, the “body composition: Fat % of Body Weight” value ([1]; after repeated dosing) was 22.8 ± 1.2%, the “body composition: Fat Mass” value ([1]; after repeated dosing) was 7.6 ± 1.1 g and the “body composition: Lean % of Body Weight” value ([1]; after repeated dosing) was 61.0 ± 1.7%. The “body composition: Lean Mass” value ([1]; after repeated dosing) was 22.1 ± 0.3 g, the daily food intake ([1]; day 0) was 3.1 ± 0.2 grams and the “percent body weight change” value ([1]; day 0) was 0.0%. For the same substance, the daily food intake ([1]; day 1) was 1.5 ± 0.2 grams, the “percent body weight change” value ([1]; day 1) was −3.7 ± 0.3% and the daily food intake ([1]; day 2) was 1.3 ± 0.2 grams. The “percent body weight change” value ([1]; day 2) was −6.2 ± 0.6%, the daily food intake ([1]; day 3) was 1.7 ± 0.3 grams and the “percent body weight change” value ([1]; day 3) was −7.8 ± 0.8%. The daily food intake ([1]; day 4) was 1.9 ± 0.2 grams, the “percent body weight change” value ([1]; day 4) was −9.2 ± 0.8% and the daily food intake ([1]; day 5) was 2.1 ± 0.2 grams. The “percent body weight change” value ([1]; day 5) was −10.1 ± 0.8%, the daily food intake ([1]; day 6) was 2.2 ± 0.2 grams and the “percent body weight change” value ([1]; day 6) was −10.2 ± 0.8%. The daily food intake ([1]; day 7) was 2.3 ± 0.2 grams, the “percent body weight change” value ([1]; day 7) was −10.7 ± 1.0% and the daily food intake ([1]; day 8) was 2.9 ± 0.4 grams. The “percent body weight change” value ([1]; day 8) was −11.1 ± 0.9%, the daily food intake ([1]; day 9) was 2.5 ± 0.2 grams and the “percent body weight change” value ([1]; day 9) was −13.1 ± 1.1%. The EC50 (rat GCGR) was over 100 nM.
